US20040191115A1 (priority 2003, published 2004)
“And” between values parts separate entries of the source, which are not always exact repeats. Identical values can stand only once. Like-named read-outs stand apart in the source and are kept apart here.

Assays:
[1] = system: bacillus atrophaeus spores; conditions: 3.12 percent H2O2, no machine operation, without cartons; for average count of colony forming units for the time period / log of average count for the time period: mean of samples
Method: (§1) Studies were conducted to determine the microbial eradication on mandrels 34 that were subjected to vaporized sterilant introduced at the heaters 40. […] The efficacy of the mandrel sterilization was studied for both the mandrel caps 35 and the mandrel side tubes 37 (see FIG. 3).
(§2) Each of the studies was further carried out using a testing media of bacillus atrophaeus spores for inoculating the mandrels. The mandrels were inoculated by spraying, using an aerating spray bottle having a solution with a concentration of about 7 log bacillus spores. The mandrels were then allowed to air dry. Controls were swabbed using cotton swabs to assure that the mandrels were properly inoculated. Following the machine operating period of the test, the mandrels were swabbed and the bacillus spores transferred to an agar media for incubation of the spores (at 32° C. for 48 hours) and subsequent recovery.
In this part of the analysis, the form, fill and seal machine was operated without cartons and without indexing (rotation) of the mandrels.

[2] = system: bacillus atrophaeus spores; conditions: 2.59 percent H2O2, slow speed, without cartons; for average count of colony forming units for the time period / log of average count for the time period: mean of samples
Method: as §1, §2
The data was collected by taking swab samples at the mandrel cap 35 (represented by C in the Table) and on the mandrel side tubes 37 (represented by T in the Table).

[3] = time 0 min, swab site C (mandrel cap)
[4] = time 0 min, swab site T (mandrel side tubes)
[5] = time 15 min, swab site C (mandrel cap)
[6] = time 15 min, swab site T (mandrel side tubes)
[7] = time 30 min, swab site C (mandrel cap)
[8] = time 30 min, swab site T (mandrel side tubes)
[9] = time 45 min, swab site C (mandrel cap)
[10] = time 45 min, swab site T (mandrel side tubes)
[11] = time 60 min, swab site C (mandrel cap)

OO [hydrogen peroxide]
average count of colony forming units for the time period ([1]; time 0 min): 3.51E+05 CFU/mandrel | log of average count for the time period ([1]; time 0 min): 5.55 log | average count of colony forming units for the time period ([1]; time 15 min): 2.90E+05 CFU/mandrel | log of average count for the time period ([1]; time 15 min): 5.46 log | Average CFU/mL ([1]; time 15 min): 7.85E+04 CFU/mL and 6.65E+04 CFU/mL | Average CFU/mandrel ([1]; time 15 min): 3.14E+05 CFU/mandrel and 2.66E+05 CFU/mandrel | Log (of Average CFU/mandrel) ([1]; time 15 min): 5.50 Log and 5.42 Log | Result #1 CFU/mL ([1]; time 15 min): 7.80E+04 CFU/mL and 4.70E+04 CFU/mL | Result #2 CFU/mL ([1]; time 15 min): 7.90E+04 CFU/mL and 8.60E+04 CFU/mL | Log Red. (Avg.) ([1]; time 15 min relative to time zero): 0.08 Log | average count of colony forming units for the time period ([1]; time 30 min): 2.72E+05 CFU/mandrel | log of average count for the time period ([1]; time 30 min): 5.43 log | Log (of Average CFU/mandrel) ([1]; time 30 min): 5.47 Log and 5.28 Log and 5.49 Log | Result #1 CFU/mL ([1]; time 30 min): 7.40E+04 CFU/mL and 4.30E+04 CFU/mL and 7.80E+04 CFU/mL | Log Red. (Avg.) ([1]; time 30 min relative to time zero): 0.11 Log | average count of colony forming units for the time period ([2]; time 0 min, cap): 4.82E+05 CFU/mandrel | log of average count for the time period ([2]; time 0 min, cap): 5.68 log | average count of colony forming units for the time period ([2]; time 0 min, side tubes): 6.67E+05 CFU/mandrel | log of average count for the time period ([2]; time 0 min, side tubes): 5.82 log | Average CFU/mL [2, 3]: 1.19E+05 CFU/mL and 1.23E+05 CFU/mL | Average CFU/mandrel [2, 3]: 4.74E+05 CFU/mandrel and 4.90E+05 CFU/mandrel | Log (of Average CFU/mandrel) [2, 3]: 5.68 Log and 5.69 Log | Result 1 CFU/mL [2, 3]: 1.24E+05 CFU/mL and 1.19E+05 CFU/mL | Result #2 CFU/mL [2, 3]: 1.13E+05 CFU/mL and 1.26E+05 CFU/mL | Log (of Average CFU/mandrel) [2, 4]: 5.95 Log and 5.65 Log | Result #2 CFU/mL [2, 4]: 2.09E+05 CFU/mL and 1.17E+05 CFU/mL | average count of colony forming units for the time period ([2]; time 15 min, cap): 3.47E+05 CFU/mandrel | log of average count for the time period ([2]; time 15 min, cap): 5.54 log | average count of colony forming units for the time period ([2]; time 15 min, side tubes): 4.02E+05 CFU/mandrel | log of average count for the time period ([2]; time 15 min, side tubes): 5.60 log | Average CFU/mandrel [2, 5]: 2.62E+05 CFU/mandrel and 4.32E+05 CFU/mandrel | Log (of Average CFU/mandrel) [2, 5]: 5.42 Log and 5.64 Log | Average CFU/mL [2, 6]: 1.01E+05 CFU/mL and 1.00E+05 CFU/mL | Average CFU/mandrel [2, 6]: 4.04E+05 CFU/mandrel and 4.00E+05 CFU/mandrel | Log (of Average CFU/mandrel) [2, 6]: 5.61 Log and 5.60 Log | Result 1 CFU/mL [2, 6]: 1.03E+05 CFU/mL and 1.06E+05 CFU/mL | Result #2 CFU/mL [2, 6]: 9.90E+04 CFU/mL and 9.40E+04 CFU/mL | Log Red. (Avg) ([2]; time 15 min relative to time zero, cap): 0.14 Log | Log Red. (Avg) ([2]; time 15 min relative to time zero, side tubes): 0.22 Log | average count of colony forming units for the time period ([2]; time 30 min, cap): 3.82E+05 CFU/mandrel | log of average count for the time period ([2]; time 30 min, cap): 5.58 log | average count of colony forming units for the time period ([2]; time 30 min, side tubes): 4.34E+05 CFU/mandrel | log of average count for the time period ([2]; time 30 min, side tubes): 5.64 log | Average CFU/mandrel [2, 7]: 2.66E+05 CFU/mandrel and 4.98E+05 CFU/mandrel | Log (of Average CFU/mandrel) [2, 7]: 5.42 Log and 5.70 Log | Average CFU/mandrel [2, 8]: 4.74E+05 CFU/mandrel and 3.94E+05 CFU/mandrel | Log (of Average CFU/mandrel) [2, 8]: 5.68 Log and 5.60 Log | Result #2 CFU/mL [2, 8]: 1.15E+05 CFU/mL and 1.08E+05 CFU/mL | Log Red. (Avg) ([2]; time 30 min relative to time zero, cap): 0.10 Log | Log Red. (Avg) ([2]; time 30 min relative to time zero, side tubes): 0.19 Log | average count of colony forming units for the time period ([2]; time 45 min, cap): 6.31E+05 CFU/mandrel | log of average count for the time period ([2]; time 45 min, cap): 5.80 log | average count of colony forming units for the time period ([2]; time 45 min, side tubes): 8.04E+05 CFU/mandrel | log of average count for the time period ([2]; time 45 min, side tubes): 5.91 log | Average CFU/mL [2, 9]: 1.43E+05 CFU/mL and 1.73E+05 CFU/mL | Average CFU/mandrel [2, 9]: 5.72E+05 CFU/mandrel and 6.90E+05 CFU/mandrel | Log (of Average CFU/mandrel) [2, 9]: 5.76 Log and 5.84 Log | Result 1 CFU/mL [2, 9]: 1.51E+05 CFU/mL and 1.64E+05 CFU/mL | Result #2 CFU/mL [2, 9]: 1.35E+05 CFU/mL and 1.81E+05 CFU/mL | Average CFU/mL [2, 10]: 1.51E+05 CFU/mL and 2.52E+05 CFU/mL | Log (of Average CFU/mandrel) [2, 10]: 5.78 Log and 6.00 Log | Result 1 CFU/mL [2, 10]: 1.67E+05 CFU/mL and 2.49E+05 CFU/mL | Result #2 CFU/mL [2, 10]: 1.34E+05 CFU/mL and 2.54E+05 CFU/mL | Log Red. (Avg) ([2]; time 45 min relative to time zero, cap): −0.12 Log | Log Red. (Avg) ([2]; time 45 min relative to time zero, side tubes): −0.08 Log | average count of colony forming units for the time period ([2]; time 60 min, cap): 3.24E+05 CFU/mandrel | log of average count for the time period ([2]; time 60 min, cap): 5.51 log | average count of colony forming units for the time period ([2]; time 60 min, side tubes): 6.01E+05 CFU/mandrel | log of average count for the time period ([2]; time 60 min, side tubes): 5.78 log | Average CFU/mL [2, 11]: 7.35E+04 CFU/mL and 8.85E+04 CFU/mL | Average CFU/mandrel [2, 11]: 2.94E+05 CFU/mandrel and 3.54E+05 CFU/mandrel | Log (of Average CFU/mandrel) [2, 11]: 5.47 Log and 5.55 Log | Result 1 CFU/mL [2, 11]: 6.30E+04 CFU/mL and 8.50E+04 CFU/mL
